Experimental findings from PMC6827146, “Short-Term Low Temperature Induces Nitro-Oxidative Stress that Deregulates the NADP-Malic Enzyme Function by Tyrosine Nitration in Arabidopsis thaliana” (Antioxidants, 2019) are described below.

The experiment concerns the target T1, cytosolic NADP-ME2 (recombinant Arabidopsis NADP-malic enzyme 2) (Arabidopsis thaliana, UniProt Q9LYG3).
T1 construct: full-length cDNA (1785 bp PCR product) in pALEXb; E. coli
T1 sequence (Q9LYG3 1-588): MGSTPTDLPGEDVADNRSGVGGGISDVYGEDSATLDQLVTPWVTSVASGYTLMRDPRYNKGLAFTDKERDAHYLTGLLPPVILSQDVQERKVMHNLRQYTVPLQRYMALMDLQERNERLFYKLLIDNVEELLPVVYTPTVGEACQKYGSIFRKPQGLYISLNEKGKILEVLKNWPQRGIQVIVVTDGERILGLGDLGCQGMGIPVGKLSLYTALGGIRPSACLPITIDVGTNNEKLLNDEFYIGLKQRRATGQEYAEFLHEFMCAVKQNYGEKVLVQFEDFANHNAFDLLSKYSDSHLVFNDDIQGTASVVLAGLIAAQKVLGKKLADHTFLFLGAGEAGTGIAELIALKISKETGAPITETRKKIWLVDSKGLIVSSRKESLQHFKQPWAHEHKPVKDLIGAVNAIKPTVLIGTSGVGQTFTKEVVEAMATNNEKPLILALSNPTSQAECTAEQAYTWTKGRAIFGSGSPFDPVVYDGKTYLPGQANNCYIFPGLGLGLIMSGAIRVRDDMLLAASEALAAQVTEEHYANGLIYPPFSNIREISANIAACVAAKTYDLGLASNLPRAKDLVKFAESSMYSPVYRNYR
As to the kind of experiment: spectrophotometric NADP reduction at […] nm after preincubation with peroxynitrite donor. It counts as biochemical. To be noted: covalent (Tyr-73 nitration); peroxynitrite generated in situ from donor SIN-1, so concentration is that of the donor; 37 °C, 1 h preincubation; assay pH 7.6, 25 °C, 2 mM MgCl2, 0.8 mM NADP, 1 mM L-mal.

For the substance ONOO^−, the “% inhibition with 5 mM SIN-1 (donor)” value was 56%.
